In publication PMC5522078, “Discovery and characterization of small molecules targeting the DNA-binding ETS domain of ERG in prostate cancer” (Oncotarget, 2017):

Legend:
RWPE-ERG cells [1] = assay: MTS cell viability assay, RWPE-ERG; format: cell-based; conditions: increasing concentrations (0.2 to 25 μM), 72 h
Experimental: Twenty four hours later, 100 μL of medium containing vehicle control or compounds. Each treatment was prepared in triplicate. After a 72 h treatment, cellular viability was assessed using CellTiter 96 ® Aqueous One Solution Cell Proliferation Assay reagent (Promega) according to the manufacturer's instructions. Values were normalized to the DMSO control. page 8: Supplementary Figure 4: VPC-18005 suppresses migration, but not growth of RWPE-1-ERG cells. (A) Cell viability (MTS) of ERG-expressing cells (RWPE-ERG) (closed circle) and non-ERG expressing cells (RWPE-MOCK (open square)) after treatment […] Impact on viability is presented as the mean ± SEM […] (B) RWPE-1-Mock or (C) […] The normalized cell index is a measure of the migration of the cells through the pores of the upper chamber and is used as the migration index. Dotted lines represent 1 standard deviation (SD) of the mean migration rate.

RWPE-ERG cells [2] = assay: Real time cell migration (xCELLigence), RWPE-ERG; format: cell-based; conditions: 5 µM; compared to MOCK control
Experimental: Cell migration was monitored using CIM-16 migration plates via the xCELLigence platform (ACEA). FBS-supplemented media (160 μL) was added to the lower chamber of the plate and incubated at RT for 30 min. The upper chamber was then mounted and 30 μL of serum free media (SFM) was added to each well and left to equilibrate in the incubator for 1 h at 37°C. After the incubation, a background reading was taken for each well. […] Real time readings of cell index values were recorded initially every 5 min until the end of the experiment (48 hr). page 8: Supplementary Figure 4: VPC-18005 suppresses migration, but not growth of RWPE-1-ERG cells. (A) Cell viability (MTS) of ERG-expressing cells (RWPE-ERG) (closed circle) and non-ERG expressing cells (RWPE-MOCK (open square)) after treatment […] Impact on viability is presented as the mean ± SEM […] (B) RWPE-1-Mock or (C) […] The normalized cell index is a measure of the migration of the cells through the pores of the upper chamber and is used as the migration index. Dotted lines represent 1 standard deviation (SD) of the mean migration rate.

ERG = target: T1, ERG (Homo sapiens, UniProt P11308); assay: ERG protein stability, Western blot after cycloheximide; format: cell-based; conditions: VCaP cells
T1 construct: VCaP (endogenous overexpression); endogenous in cells; host or cells: VCaP (whole cells for A2 and A17; nuclear extract for A16)
T1 sequence (P11308 33-479 limits assumed): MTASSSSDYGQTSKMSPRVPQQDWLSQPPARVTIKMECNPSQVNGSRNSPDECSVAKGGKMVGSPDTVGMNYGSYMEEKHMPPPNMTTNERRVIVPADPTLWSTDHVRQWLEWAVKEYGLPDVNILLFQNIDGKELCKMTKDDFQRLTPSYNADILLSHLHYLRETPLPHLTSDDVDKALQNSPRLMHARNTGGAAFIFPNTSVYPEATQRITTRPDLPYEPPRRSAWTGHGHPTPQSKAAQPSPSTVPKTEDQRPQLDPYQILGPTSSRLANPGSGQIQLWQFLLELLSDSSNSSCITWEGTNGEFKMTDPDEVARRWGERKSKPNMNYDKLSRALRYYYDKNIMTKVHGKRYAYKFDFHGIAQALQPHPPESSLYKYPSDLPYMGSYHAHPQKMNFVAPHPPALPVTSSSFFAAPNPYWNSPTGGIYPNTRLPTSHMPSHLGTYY
Experimental: Cells were lysed on ice with RIPA buffer containing a protease inhibitor cocktail (Pierce). Primary antibodies: ERG (1:1,000, EPR3864(2), Abcam), α-Tubulin (1:20,000, Millipore), Vinculin (1:1,000, Abcam). Immunoreactivity was detected with the use of the goat anti-rabbit or rabbit anti-mouse horseradish peroxidase (HPR)–conjugated secondary antibody (1:10,000) (Santa Cruz), and visualization was achieved by chemiluminescence (Pierce). To inhibit protein synthesis, 10 μM cycloheximide was added for 1 h and then replaced with treatment medium for indicated time frame.

SOX9 = SOX9 gene expression in VCaP cells; format: cell-based, human; conditions: 25 μM, with and without 1 nM R1881
Experimental: Total RNA was extracted from VCaP cells with the use of RNeasy Plus kit (Qiagen). Reverse transcription was performed with the use of the iScript First-Strand cDNA Synthesis Kit (Bio-Rad Laboratories) with 100 ng total RNA used as template. Real time reverse-transcription (RT) polymerase chain reaction (PCR) primers for ERG synthesized by IDT (forward, 5′- CGCAGATTATCGT GCCAGCAGAT -3′; reverse, 5′- CCATATTCTTTCACC GCCCACTCC-3′) and SOX9 (Quantitect primer assay, Qiagen). Real-time quantitative RT-PCR was performed in triplicate for each sample with the use of the ABI ViiA7 QPCR thermocycler. In each reaction, 1 μl cDNA, 1 μl forward and reverse primers (or 1 μl of Quantitect primers), and 6 μl Sybr Green Master Mix (Applied Biosystems) were added with water to make a final volume of 12 μl. All primers were used at a concentration of 5 μmol/l. PCR cycling conditions were 95°C for 10 minutes followed by 40 cycles of 95°C for 15 seconds, 60°C for 1 min. Data was normalized to reference genes: GAPDH (forward, 5′- […] -3′; reverse, 5′- […] -3′) The 2^−ΔΔCT method was used to compare samples. PCR product specificity was validated with the use of a melt curve.

For `CC(C)c1ccc(C=N/N=C2\NC(=O)[C@@H](CC(=O)O)S2)cc1` (stereo in doubt) [VPC-18005, 2-((Z)-2-(((Z)-4-isopropylbenzylidene)hydrazono)-4-oxothiazolidin-5-yl)acetic acid], the “Effect on cell viability (MTS), RWPE cells overexpressing ERG” value (RWPE-ERG cells [1]) was “No effect on cell viability”, the “Effect on RWPE-ERG cell migration” value (RWPE-ERG cells [2]) was “moderate effect” and the “ERG protein degradation, 4 h” value (ERG; cycloheximide pre-treatment, up to 50 μM for 4 h) was “did not induce ERG degradation”. The “ERG protein degradation, 24 and 48 h” value (ERG; cycloheximide, 24 and 48 h) was “no observable ERG protein degradation” and the “Basal and R1881-stimulated SOX9 mRNA and protein expression” value (SOX9) was “markedly decreased”.
